Measurements from patent publication US20230248833A1, “COMPOUND HAVING BTK KINASE DEGRADING ACTIVITY, AND PREPARATION METHOD AND PHARMACEUTICAL USE THEREFOR” (SICHUAN HAISCO PHARMACEUTICAL CO., LTD., priority 2020, published 2023).

How the values were obtained:
[1] = system: Mino cells; test: Inhibition of cell proliferation, Mino cells (Cell Viability Assay, 72 h); assay type: cell-based, human; conditions: for IC50: Homo sapiens, MINO, 72 h; for Mino Max inhi. %: inhibition rate at the highest concentration of the compound
Procedure: (§1) SU-DHL-4, Mino, and SU-DHL-6 cells, in the culture medium of RPMI1640+10% FBS, were cultured in an incubator at 37° C. under 5% CO2. Cells were plated in a 96-well plate. Specifically, SU-DHL-4 cells were at 20000/well, Mino and SU-DHL-6 cells were at 5000/well, with 90 μL/well. 10 μL of the compounds at different concentrations were added to each well. There were 3 replicate wells for each concentration, and the last column, added with DMSO, was used as a vehicle control group. The cultures were continued for 72 hours at 37° C. under 5% CO2. After 72 hours, 100 μL of detection reagent (Cell Viability Assay, Promega, G7573) was added to each well, and the cultures were uniformly mixed for 2 minutes, and incubated at room temperature for 10 minutes. The […] signal value was measured with a microplate reader (PHERAstar FSX). The IC50 value of the compound on cell proliferation inhibition was calculated using origin9.2 software, and the inhibition rate at the highest concentration of the compound (Max inhi.%) was calculated according to formula (1).
(§2) Max inhi.%=(1−T72administration/T72vehicle)×100 Formula (1).

[2] = Pharmacokinetic experiment in rats; assay type: in vivo; conditions: male, SD, rat, po, plasma, i.g. (20 mg/kg); for AUC(0-t): single dose
Procedure: Experimental objective: In this experiment, a single dose of each test compound was administered to SD rats intravenously and intragastrically, the concentrations of the test compound in plasma of rats were measured, and the pharmacokinetic characteristics and bioavailability of the test compound in rats were evaluated.
Experimental animals: Male SD rats, about 200 g, 6-8 weeks old, 6 rats/compound. Rats were purchased from Hunan SJA Laboratory Animal Co., Ltd, with the laboratory animal production license number of SCXK (Xiang) 2019-004.
Experimental method: On the day of the experiment, 6 SD rats were randomly grouped according to their body weight. The animals were fasted with water available for 12 to 14 hours one day before the administration of a test compound, and were fed 4 hours after the administration.
Before and after the administration, […] of blood was taken from the orbit of the rats under isoflurane anesthesia, and placed in an EDTAK2 centrifuge tube. Centrifugation was carried out at 5000 rpm at 4° C. for 10 min, and the plasma was collected.
Time points for sample collection in G1&G2 groups comprise
Before analysis and detection, all samples were stored at −80° C. The samples were detected by HPLC-MS/MS.

[3] = system: SU-DHL-6 cells; test: Inhibition of cell proliferation, SU-DHL-6 cells (Cell Viability Assay, 72 h); assay type: cell-based, human; conditions: Homo sapiens, SU-DHL-6, 72 h
Procedure: as §1, §2

Row | SMILES | IC50 [1] [µM] | Mino Max inhi. % [1] [%] | also measured
1 | Nc1ncnc2c1c(-c1ccc(Oc3ccccc3)c(F)c1)nn2C1CCN(C2CCN(C3CN(c4ccc5c(c4)C(=O)N(C4CCC(=O)NC4=O)C5=O)C3)CC2)CC1 (stereo not drawn) [Compound 96, 5-(3-(4-(4-amino-3-(3-fluoro-4-phenoxyphenyl)-1H-pyrazolo[3,4-d]pyrimidin-1-yl)-[1,4′-bipiperidin]-1′-yl)azetidin-1-yl)-2-(2,6-dioxopiperidin-3-yl)isoindoline-1,3-dione] | 0.501 |  | 
2 | NC(=O)c1c(-c2ccc(Oc3ccccc3)cc2)nn2c1NCC[C@H]2C1CCN(C2CCN(CC3CCN(c4ccc5c(c4)C(=O)N(C4CCC(=O)NC4=O)C5=O)CC3)CC2)CC1 (stereo partly drawn) [Compound 81, (7S)-7-(1′-((1-(2-(2,6-dioxopiperidin-3-yl)-1,3-dioxoisoindolin-5-yl)piperidin-4-yl)methyl)-[1,4′-bipiperidin]-4-yl)-2-(4-phenoxyphenyl)-4,5,6,7-tetrahydropyrazolo[1,5-a]pyrimidine-3-carboxamide] |  | 99.9 | 
3 | Nc1ncnc2c1c(-c1ccc(Oc3ccccc3)cc1)nn2C1CCN(C2CN(CC3CN(c4ccc5c(c4)CN(C4CCC(=O)NC4=O)C5=O)C3)C2)CC1 (stereo not drawn) [Compound 107, 3-(5-(3-((3-(4-(4-amino-3-(4-phenoxyphenyl)-1H-pyrazolo[3,4-d]pyrimidin-1-yl)piperidin-1-yl)azetidin-1-yl)methyl)azetidin-1-yl)-1-oxoisoindolin-2-yl)piperidine-2,6-dione] |  |  | AUC(0-t) [2]: 0.61 ± 0.131 µg·h/mL
4 | Nc1ncnc2c1c(-c1ccc(Oc3ccccc3)cc1)nn2C1CCN(C2CN(C3CN(CC4CN(c5ccc6c(c5)C(=O)N(C5CCC(=O)NC5=O)C6=O)C4)C3)C2)CC1 (stereo not drawn) [Trifluoroacetate of compound 102, 5-(3-((3-(4-(4-amino-3-(4-phenoxyphenyl)-1H-pyrazolo[3,4-d]pyrimidin-1-yl)piperidin-1-yl)-[1,3′-biazetidin]-1′-yl)methyl)azetidin-1-yl)-2-(2,6-dioxopiperidin-3-yl)isoindoline-1,3-dione] | 0.042 |  | IC50 [3]: 0.023 µM
5 | Nc1ncnc2c1c(-c1ccc(Oc3ccccc3)cc1)nn2C1CCN(C2CN(C(=O)CC34CC5CC(CC(C5)C3)C4)C2)CC1 [Compound 74, 2-((3r,5r,7r)-adamantan-1-yl)-1-(3-(4-(4-amino-3-(4-phenoxyphenyl)-1H-pyrazolo[3,4-d]pyrimidin-1-yl)piperidin-1-yl)azetidin-1-yl)ethanone] |  | 88.3 | 
6 | Nc1ncnc2c1c(-c1ccc(Oc3ccccc3)cc1)nn2C1CCN(C2(C(F)(F)F)CCN(C3CN(c4ccc5c(c4)C(=O)N(C4CCC(=O)NC4=O)C5=O)C3)CC2)CC1 (stereo not drawn) [Compound 70, 5-(3-(4-(4-amino-3-(4-phenoxyphenyl)-1H-pyrazolo[3,4-d]pyrimidin-1-yl)-4′-(trifluoromethyl)-[1,4′-bipiperidin]-1′-yl)azetidin-1-yl)-2-(2,6-dioxopiperidin-3-yl)isoindoline-1,3-dione] | 0.101 |  | 
7 | Nc1ncnc2c1c(-c1ccc(Oc3ccccc3)cc1)nn2C1CCC2(CC1)CN(C1CN(c3ccc4c(c3)C(=O)N(C3CCC(=O)NC3=O)C4=O)C1)C2 (stereo not drawn) [Compound 75, 5-(3-(7-(4-amino-3-(4-phenoxyphenyl)-1H-pyrazolo[3,4-d]pyrimidin-1-yl)-2-azaspiro[3.5]nonan-2-yl)azetidin-1-yl)-2-(2,6-dioxopiperidin-3-yl)isoindoline-1,3-dione] | 0.037 |  | 
8 | Nc1ncnc2c1c(-c1ccc(Oc3ccccc3)cc1)nn2C1CC2(CCN(C3CC4(CCN(c5ccc6c(c5)C(=O)N(C5CCC(=O)NC5=O)C6=O)CC4)C3)CC2)C1 (stereo not drawn) [Compound 66, 5-(2′-(4-amino-3-(4-phenoxyphenyl)-1H-pyrazolo[3,4-d]pyrimidin-1-yl)-7,7′-diaza[2,7′-bispiro[3.5]nonan]-7-yl)-2-(2,6-dioxopiperidin-3-yl)isoindoline-1,3-dione] | 0.027 |  | 
9 | NC(=O)c1c(-c2ccc(Oc3ccccc3)cc2)nn2c1NCC[C@H]2C1CCN(C2CCN(CC3CN(c4ccc5c(c4)C(=O)N(C4CCC(=O)NC4=O)C5=O)C3)CC2)CC1 (stereo partly drawn) [Compound 82, (7S)-7-(1′-((1-(2-(2,6-dioxopiperidin-3-yl)-1,3-dioxoisoindolin-5-yl)azetidin-3-yl)methyl)-[1,4′-bipiperidin]-4-yl)-2-(4-phenoxyphenyl)-4,5,6,7-tetrahydropyrazolo [1,5-a]pyrimidine-3-carboxamide] |  | 99.9 | 
10 | Nc1ncnc2c1c(-c1ccc(Oc3ccccc3)c(F)c1)nn2C1CCN(C2CN(C3CN(c4ccc5c(c4)C(=O)N(C4CCC(=O)NC4=O)C5=O)C3)C2)CC1 (stereo not drawn) [Compound 95, 5-(3-(4-(4-amino-3-(3-fluoro-4-phenoxyphenyl)-1H-pyrazolo[3,4-d]pyrimidin-1-yl)piperidin-1-yl)-[1,3′-biazetidin]-1′-yl)-2-(2,6-dioxopiperidin-3-yl)isoindoline-1,3-dione] | 0.1 |  | bioavailability ([2]; bioavailability): 12.3 ± 2.1%; AUC(0-t) [2]: 4.27 ± 0.739 µg·h/mL
11 | NC(=O)c1c(-c2ccc(Oc3ccccc3)cc2)nn2c1NCC[C@H]2C1CCN(C2CN(CC3CN(c4ccc5c(c4)C(=O)N(C4CCC(=O)NC4=O)C5=O)C3)C2)CC1 (stereo partly drawn) [Compound 80, (7S)-7-(1-(1-((1-(2-(2,6-dioxopiperidin-3-yl)-1,3-dioxoisoindolin-5-yl)azetidin-3-yl)methyl)azetidin-3-yl)piperidin-4-yl)-2-(4-phenoxyphenyl)-4,5,6,7-tetrahydropyrazolo[1,5-a]pyrimidine-3-carboxamide] |  | 99.1 | 
12 | NC(=O)c1c(-c2ccc(Oc3ccccc3)cc2)nn2c1NCC[C@H]2C1CCN(CC2CCN(c3ccc4c(c3)C(=O)N(C3CCC(=O)NC3=O)C4=O)CC2)CC1 (stereo partly drawn) [Compound 83, (7S)-7-(1-((1-(2-(2,6-dioxopiperidin-3-yl)-1,3-dioxoisoindolin-5-yl)piperidin-4-yl)methyl)piperidin-4-yl)-2-(4-phenoxyphenyl)-4,5,6,7-tetrahydropyrazolo[1,5-a]pyrimidine-3-carboxamide] |  | 99.7 | 
13 | Nc1ncnc2c1c(-c1ccc(Oc3ccccc3)cc1)nn2C1CC2(CCN(C3CN(C4CN(c5ccc6c(c5)C(=O)N(C5CCC(=O)NC5=O)C6=O)C4)C3)CC2)C1 (stereo not drawn) [Compound 65, 5-(3-(2-(4-amino-3-(4-phenoxyphenyl)-1H-pyrazolo[3,4-d]pyrimidin-1-yl)-7-azaspiro[3.5]nonan-7-yl)-[1,3′-biazetidin]-1′-yl)-2-(2,6-dioxopiperidin-3-yl) isoindoline-1,3-dione] | 0.014 |  | 
14 | Nc1ncnc2c1c(-c1ccc(Oc3ccccc3)cc1)nn2C1CCN(C2CN(C3CN(c4ccc5c(n4)CN(C4CCC(=O)NC4=O)C5=O)C3)C2)CC1 (stereo not drawn) [Compound 76, 3-(2-(3-(4-(4-amino-3-(4-phenoxyphenyl)-1H-pyrazolo[3,4-d]pyrimidin-1-yl)piperidin-1-yl)-[1,3′-biazetidin]-1′-yl)-5-oxo-5,7-dihydro-6H-pyrrolo[3,4-b]pyridin-6-yl)piperidine-2,6-dione] | 0.141 |  | 
15 | Nc1ncnc2c1c(-c1ccc(Oc3ccccc3)cc1)nn2C1CCN(C2CN(C3CN(C(=O)CC45CC6CC(CC(C6)C4)C5)C3)C2)CC1 [Compound 72, 2-(1-adamantyl)-1-[3-[3-[4-[4-amino-3-(4-phenoxyphenyl)pyrazolo[3,4-d]pyrimidin-1-yl]-1-piperidyl]azetidin-1-yl]azetidin-1-yl]ethanone] | 0.01 to 1 | 88.5 | 
16 | Nc1ncnc2c1c(-c1ccc(Oc3ccccc3)cc1)nn2C1CCN(C2CCN(CC3CN(c4ccc5c(c4)C(=O)N(C4CCC(=O)NC4=O)C5=O)C3)CC2)CC1 (stereo not drawn) [Compound 84, 5-(3-((4-(4-amino-3-(4-phenoxyphenyl)-1H-pyrazolo[3,4-d]pyrimidin-1-yl)-[1,4′-bipiperidin]-1′-yl)methyl)azetidin-1-yl)-2-(2,6-dioxopiperidin-3-yl)isoindoline-1,3-dione] | 0.032 |  | AUC(0-t) [2]: 0.176 ± 0.057 µg·h/mL
17 | Nc1ncnc2c1c(-c1ccc(Oc3ccccc3)cc1)nn2C1CCN(C2CCN(C3CN(C(=O)CC45CC6CC(CC(C6)C4)C5)C3)CC2)CC1 [Compound 73, 2-(1-adamantyl)-1-(3-(4-(4-amino-3-(4-phenoxyphenyl)pyrazolo[3,4-d]pyrimidin-1-yl)-[1,4′-bipiperidin]-1′-yl)azetidin-1-yl)ethan-1-one] |  | 99.8 | 
18 | Nc1ncnc2c1c(-c1ccc(Oc3ccccc3)cc1)nn2C1CCN(C2CCN(CC3CCN(c4ccc5c(c4)C(=O)N(C4CCC(=O)NC4=O)C5=O)CC3)CC2)CC1 (stereo not drawn) [Compound 86, 5-(4-((4-(4-amino-3-(4-phenoxyphenyl)-1H-pyrazolo[3,4-d]pyrimidin-1-yl)-[1,4′-bipiperidin]-1′-yl)methyl)piperidin-1-yl)-2-(2,6-dioxopiperidin-3-yl)isoindoline-1,3-dione] | 0.042 |  | AUC(0-t) [2]: 0.247 ± 0.073 µg·h/mL
